Key:
[1] = 1-Octanol/water distribution coefficient measured at 7.4; assay type: physicochemical; conditions: pH 7.4
Homo sapiens = species: Homo sapiens; test: Compound was evaluated for inhibition of ADP-mediated platelet aggregation; assay type: functional; design: concentration or dose not given beside the values

Row | Compound | logD [1] | Inhibition (Homo sapiens) [%]
1 | c1ccc(CN2CCc3[nH]ccc3C2)cc1 | 1.59 | 46.5
2 | C=Cn1ccc2c1CCN(Cc1ccccc1)C2 | – | 38.7
3 | CCN1CCc2[nH]ccc2C1 | – | 23.7
4 | CC1CN(C)C(C)c2cc(CO)[nH]c21 (stereo not given) | – | 3.3
5 | CC1CN(C)C(C)c2cc(C=O)[nH]c21 (stereo not given) | 0.69 | 48
6 | Clc1ccccc1CN1CCc2sccc2C1 [TICLOPIDINE] | – | 48.5
7 | CC1CN(C)C(C)c2cc([N+](=O)[O-])[nH]c21 (stereo not given) | 1.14 | 3.6
8 | CC1CNC(C)c2cc[nH]c21 (stereo not given) | -1.08 | 26
9 | CC1CN(C)C(C)c2cc(/C=N/CCO)[nH]c21 (stereo not given) | – | 12.2
10 | CC1CN(C)C(C)c2cc[nH]c21 (stereo not given) | -0.41 | 28.5

Source: ChEMBL document CHEMBL1133077, “Pyrrolo[3,2-c]pyridine derivatives as inhibitors of platelet aggregation” (Bioorg Med Chem Lett, 2000)
